Test results reported in patent US4839465A, “Di-(D-tryptophyl and/or tetrahydropyridoindolylcarbonyl)-containing peptide amides and process for preparation thereof” (Sterling Drug Inc., priority 1987, dated 1989).
Like-named read-outs stand apart in the source and are kept apart here. Where a SMILES comes first, the peptide text is derived from it. [ ]: non-standard residue; d: D form. Tpi = O=C(O)[C@@H]1Cc2c([nH]c3ccccc23)CN1; dTpi = O=C(O)[C@H]1Cc2c([nH]c3ccccc23)CN1

Key:
[1] = tested on: Substance P effect in isolated guinea pig ileum longitudinal muscle; assay: Guinea pig ileum test, Substance P agonist and antagonist effect; assay type: cell-based
Method: Strips of longitudinal muscle (derived from terminal ileum of adult male guinea pigs (Charles River, 400-600 g.) are mounted in 5-ml. organ baths containing oxygenated Krebs solution containing 1 μM each of atropine and pyrilamine maintained at 30°-33° C. and connected to isometric transducers. Following tissue equilibration and repeated washing (45-60 min.), SP or an appropriate reference agonist is added cumulatively to the bath and contractions of the tissue are recorded. The bath is washed thoroughly and 30-45 min. is allowed to elapse before construction of a second reference agonist curve to assure reproducibility of the responses. Test compounds are similarly evaluated for agonist activity up to a maximum concentration of 10-100 μM. Regression analysis of the linear portion of the log concentration-percent maximal response curves provides the EC50 (and 95% confidence limits), the standard measure of agonist potency. When appropriate, relative molar potency ratios are calculated (EC50 reference/ED50 test drug). Antagonist activity is examined by pretreating thoroughly washed tissues with test compound (using a standard 5-10 min. contact time), then constructing a cumulative dose-response curve to the reference agonist. The effects of several concentrations of test antagonist, pooled across separate experiments, provide dose-ratio (EC50 shift) data for a standard Schild plot analysis, with computation of the pA2.

[2] = target: T1, SP receptor (rat brain tissue) (Rattus norvegicus, UniProt P14600); assay: Rat brain tissue 3H-SP competitive binding; conditions: for Kd: crude rat brain tissue, 3H-SP, read-out: Substance P Competitive Binding KD; for effect on 3H-SP binding: specificity and sensitivity of the binding assay, rat brain tissue
T1 construct: from tissue; host or cells: crude rat brain tissue
Method: Crude rat brain tissue is suspended in buffer containing protease inhibitors and calcium ions and magnesium ions and incubated under nitrogen atmosphere with ^3 H-SP and test compound. The bound SP is then separated from free SP by filtration and quantitated by liquid scintillation spectroscopy. This test meets the criteria of reversibility,saturability, sensitivity to known SP agonists and antagonists, and specificity for an SP receptor binding assay.
With regard to reversibility, addition of unlabelled SP causes a gradual decrease in bound ^3 H-SP, showing that SP is not irreversibly bound to the receptors in the tissue. With regard to saturability, the amount of bound ^3 H-SP in the preparation increases in direct proportion to the concentration of ^3 H-SP added until a saturation point is reached. […] With regard to sensitivity, known SP agonists and antagonists inhibit ^3 H-SP binding.
The results are expressed in terms of the equilibrium constant KD in nanomoles per liter (nM), which takes into account the concentration of ^3 H-SP.

[3] = tested on: acetylcholine-induced writhing; assay: Mouse acetylcholine-induced writhing test; assay type: in vivo; conditions: intrathecal, acetylcholine 3.2 mg./kg. i.p. five minutes after injection
Method: Male Swiss-Webster mice (18-24 g.) are divided into groups of 8-15 mice. A test compound in a vehicle or the vehicle alone is administered intrathecally in a volume of 5 μl by the method of Hylden and Wilcox (European Journal of Pharmacology, vol. 67, pp. 313-316, 1980) except that caudal cutaneous incision is not performed prior to injection. Five minutes after the injection a solution of acetylcholine (3.2 mg./kg., the approximate ED90) in 0.9% aqueous sodium chloride is administered intraperitoneally to each mouse. […] For test compounds which produce a graded dose-response ED50 values with 95% confidence limits are determined by probit analysis of the data.

[4] = tested on: gastric juice secretion; conditions: in vivo; cited from earlier work
[5] = Schild plot, 5-10 min. contact time, guinea pig ileum longitudinal muscle

T1 sequence (P14600 whole entry): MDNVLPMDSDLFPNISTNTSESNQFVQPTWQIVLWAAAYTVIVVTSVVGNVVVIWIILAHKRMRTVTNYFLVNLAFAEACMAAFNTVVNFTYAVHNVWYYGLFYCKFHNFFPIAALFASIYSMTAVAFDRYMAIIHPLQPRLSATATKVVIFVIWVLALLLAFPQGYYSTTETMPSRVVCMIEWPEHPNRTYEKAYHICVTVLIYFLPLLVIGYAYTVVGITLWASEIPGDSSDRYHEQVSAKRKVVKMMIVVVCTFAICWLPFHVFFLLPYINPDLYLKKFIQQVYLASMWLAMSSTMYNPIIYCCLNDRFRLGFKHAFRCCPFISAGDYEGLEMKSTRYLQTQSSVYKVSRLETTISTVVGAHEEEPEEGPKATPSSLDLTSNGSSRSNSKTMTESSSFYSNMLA

## CSCC[C@H](NC(=O)[C@H](CC(C)C)NC(=O)[C@@H](Cc1c[nH]c2ccccc12)NC(=O)[C@H](Cc1ccccc1)NC(=O)[C@H](N)Cc1c[nH]c2ccccc12)C(N)=O [Example 1, H--trp--Phe--trp--Leu--Met--NH2] (H-[dW]F[dW]LM-NH2)
[1]
  EC50: > 1000 nM
[1]; guinea pig ileum, not quantified
  Substance P agonist activity: Some agonist activity was noted

## CC(C)C[C@H](NC(=O)[C@@H](Cc1c[nH]c2ccccc12)NC(=O)[C@H](Cc1ccccc1)NC(=O)[C@@H](Cc1c[nH]c2ccccc12)NC(=O)[C@@H]1CCCN1)C(=O)N[C@@H](Cc1ccccc1)C(N)=O [Example 2, H--Pro--trp--Phe--trp--Leu--Phe--NH2] (H-P[dW]F[dW]LF-NH2)
[2]
  Kd: 22 nM
[1]; [5]
  Substance P Antagonist pA2: 6.4

## CC(C)C[C@H](NC(=O)[C@@H](Cc1c[nH]c2ccccc12)NC(=O)[C@H](Cc1ccccc1)NC(=O)[C@@H](Cc1c[nH]c2ccccc12)NC(=O)[C@@H]1CCCN1)C(N)=O [Example 3, H--Pro--trp--Phe--trp--Leu--NH2] (H-P[dW]F[dW]L-NH2)
[2]
  Kd: 35 nM
[1]; [5]
  Substance P Antagonist pA2: 5.1

## CSCC[C@H](NC(=O)[C@H](CC(C)C)NC(=O)[C@@H](Cc1c[nH]c2ccccc12)NC(=O)[C@H](Cc1ccccc1)NC(=O)[C@H]1Cc2c([nH]c3ccccc23)CN1)C(N)=O [Example 4, H--tpi--Phe--trp--Leu--Met--NH2] (H-[dTpi]F[dW]LM-NH2)
[2]
  Kd: 42 nM
[3]
  ED50, protection against acetylcholine-induced writhing: 0.7 μg/mouse
[1]; [5]
  Substance P Antagonist pA2: 6.4

## CSCC[C@H](NC(=O)[C@H](CC(C)C)NC(=O)[C@@H](Cc1c[nH]c2ccccc12)NC(=O)[C@H](Cc1ccccc1)NC(=O)[C@@H]1Cc2c([nH]c3ccccc23)CN1)C(N)=O [Example 5, H--Tpi--Phe--trp--Leu--Met--NH2] (H-[Tpi]F[dW]LM-NH2)
[2]
  Kd: 59 nM

## CC(C)C[C@H](NC(=O)[C@H]1Cc2c([nH]c3ccccc23)CN1C(=O)[C@H](Cc1ccccc1)NC(=O)[C@@H](Cc1c[nH]c2ccccc12)NC(=O)[C@@H]1CCCN1)C(=O)N[C@@H](Cc1ccccc1)C(N)=O [Example 6, H--Pro--trp--Phe--tpi--Leu--Phe--NH2] (H-P[dW]F[dTpi]LF-NH2)
[2]
  Kd: 39 nM
[1]; [5]
  Substance P Antagonist pA2: 6.4

## CC(C)C[C@H](NC(=O)[C@@H](Cc1c[nH]c2ccccc12)NC(=O)[C@H](Cc1ccccc1)NC(=O)[C@H](N)Cc1c[nH]c2ccccc12)C(=O)N[C@@H](Cc1ccccc1)C(N)=O [Example 8, H--trp--Phe--trp--Leu--Phe--NH2] (H-[dW]F[dW]LF-NH2)
[1]
  Substance P Antagonist pA2: 6.28

## CC(C)C[C@H](NC(=O)[C@@H](Cc1c[nH]c2ccccc12)NC(=O)[C@H](Cc1ccccc1)NC(=O)[C@H]1Cc2c([nH]c3ccccc23)CN1)C(=O)N[C@@H](Cc1ccccc1)C(N)=O [Example 9, H--tpi--Phe--trp--Leu--Phe--NH2] (H-[dTpi]F[dW]LF-NH2)
[1]
  Substance P Antagonist pA2: 6.65

## NCC(CC(=O)O)c1ccc(Cl)cc1 (stereo not drawn) [baclofen, reference compound]
[2]
  effect on 3H-SP binding: do not affect

## COc1cc(CNC(=O)CCCC/C=C/C(C)C)ccc1O [capsaicin, reference compound]
[2]
  effect on 3H-SP binding: do not affect

## H--Tpi--Bpa--trp--Leu--Phe--NH2 H--Tpi--bpa--trp--Leu--Phe--NH2 (mixture of isomers) [Example 7, H--Tpi--Bpa--trp--Leu--Phe--NH2 H--Tpi--bpa--trp--Leu--Phe--NH2 (mixture of isomers)]
[1]; [5]
  Substance P Antagonist pA2: 6.25

## Z--Tca--Met--Asp--Phe--NH2 [Tca-tetragastrin]
[4]
  gastric juice stimulating activity: having gastric juice stimulating activity
